# Target: T1, HDAC6 (Homo sapiens, UniProt Q9UBN7)
# T1 sequence (Q9UBN7 1-1215): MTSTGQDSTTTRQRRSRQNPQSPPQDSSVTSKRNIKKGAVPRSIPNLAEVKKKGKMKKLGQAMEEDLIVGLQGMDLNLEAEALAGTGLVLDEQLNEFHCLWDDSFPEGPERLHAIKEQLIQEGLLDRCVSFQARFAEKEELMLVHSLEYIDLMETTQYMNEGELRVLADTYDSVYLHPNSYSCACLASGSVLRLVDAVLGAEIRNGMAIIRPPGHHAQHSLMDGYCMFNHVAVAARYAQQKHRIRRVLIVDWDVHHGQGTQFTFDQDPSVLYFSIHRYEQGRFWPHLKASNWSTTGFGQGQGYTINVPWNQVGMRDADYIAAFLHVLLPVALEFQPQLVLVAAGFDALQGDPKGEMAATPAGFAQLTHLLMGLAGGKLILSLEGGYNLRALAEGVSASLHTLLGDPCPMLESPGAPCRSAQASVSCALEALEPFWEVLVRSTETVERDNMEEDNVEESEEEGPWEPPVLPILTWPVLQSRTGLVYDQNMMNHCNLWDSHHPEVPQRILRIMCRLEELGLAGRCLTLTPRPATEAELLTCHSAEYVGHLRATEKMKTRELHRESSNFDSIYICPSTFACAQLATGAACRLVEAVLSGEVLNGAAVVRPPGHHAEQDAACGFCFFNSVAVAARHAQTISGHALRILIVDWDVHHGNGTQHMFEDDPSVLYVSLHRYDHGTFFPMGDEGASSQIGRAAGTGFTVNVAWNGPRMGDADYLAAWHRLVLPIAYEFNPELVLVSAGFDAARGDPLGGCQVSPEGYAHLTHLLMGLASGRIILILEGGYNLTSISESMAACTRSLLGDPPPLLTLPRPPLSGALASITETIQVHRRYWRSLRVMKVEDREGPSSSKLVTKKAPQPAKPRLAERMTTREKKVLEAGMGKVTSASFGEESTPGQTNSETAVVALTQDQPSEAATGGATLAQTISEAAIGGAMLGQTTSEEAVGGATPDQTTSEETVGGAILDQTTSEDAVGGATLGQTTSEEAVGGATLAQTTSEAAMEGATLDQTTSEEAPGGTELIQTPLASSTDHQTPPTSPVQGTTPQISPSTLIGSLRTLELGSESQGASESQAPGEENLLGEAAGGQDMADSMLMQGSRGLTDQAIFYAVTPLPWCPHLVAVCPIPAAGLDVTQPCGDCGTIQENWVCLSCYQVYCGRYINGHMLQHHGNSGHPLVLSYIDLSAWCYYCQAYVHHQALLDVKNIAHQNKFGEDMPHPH
# Experiment: fluorescent-based HDAC assay
# Format: biochemical
# Parameters: purchased BPS Bioscience
# Description: Commercial fluorescent assay kits were used to measure the activities of HDAC (BPS Bioscience). Briefly, the tested compounds were diluted in DMSO into a 96-well plate, and then assay buffer, HDAC, and substrate were added. The plate was incubated at 37° C for 30 minutes for enzymatic reactions, and the developer was added. After 10 minutes of incubation, the generated fluorescence was measured at an excitation of 380 nm and an emission of 460 nm.
compound,measurement,setting,value
N#Cc1ccc(N2C(=O)C3(CCC3)N(c3ccc(C(=O)NO)c(F)c3)C2=S)cc1C(F)(F)F [Zeta55],IC50,,980 nM
same,selectivity for HDAC6 over other HDACs tested,"over HDAC1, 2, 3, 4",> 20 folds

# Source: article PMC7993727, “Discovery of a novel AR/HDAC6 dual inhibitor for prostate cancer treatment” (Aging (Albany NY), 2021)
